Data published in PMC4708017, “Antiplasmodial activity of iron(II) and ruthenium(II) organometallic complexes against Plasmodium falciparum blood parasites” (Memórias do Instituto Oswaldo Cruz, 2015).
Like-named read-outs stand apart in the source and are kept apart here.

Columns and labels:
[1] = test system: Plasmodium falciparum blood forms (W2 clone, chloroquine-resistant); assay: in vitro antiplasmodial activity, anti-histidine-rich protein II assay; format: cell-based
Procedure: Continuous culture of P. falciparum and in vitro tests of drug activity - Blood-stage P. falciparum parasites, W2 clone CQ-resistant ([Oduola et al. 1988]), maintained according to [Trager & Jensen (1976)], were used in the drug activity tests after sorbitol-synchronisation ([Lambros & Vanderberg 1979)]. The antiplasmodial activity of the compounds was determined relative to control parasites kept in culture medium only ([Rieckmann et al. 1978)] through the anti-histidine-rich protein II assay ([Noedl et al. 2002)]. The IC50 of parasite growth was determined through sigmoidal dose-response curves built by curve-fitting software (Microcal Origin Software v.5.0). […]

[2] = test system: HepG2 human hepatoma cells
Procedure: The SI was calculated in order to give an insight into the therapeutic index of the molecules, i.e., how far the toxic concentration is from the therapeutic one.

[3] = octanol/water partition coefficient (log P o/w) by HPLC; format: physicochemical; conditions: determined for the first time in this paper
Source text: Measurement of lipophilicity data - Measurements of the octanol/water partition coefficient (log P o/w) were made by the HPLC technique according to a method described previously ([Minick et al. 1988], [Pomper et al. 1990]). Measurement of the chromatographic capacity factors (k) for each molecule was done at various concentrations in the range of 95-75% methanol containing 0.25% (v/v) 1-octanol, and an aqueous phase consisting of 0.15% (v/v) n-decylamine in the buffering agent 3-morpholinopropane-1-sulfonic acid (MOPS) prepared in 1-octanol saturated water adjusted to pH 7.4. These capacity factors (k’) are extrapolated to 100% of the aqueous component given the value of k’. The logP o/w is obtained by the formula logP o/w = 0.13418 + 0.98452 logk’.

[4] = P. falciparum W2 clone, CQ-resistant, blood-stage, anti-HRPII assay, read-out: IC50 Pf

**Q.** What does the source list for `CCC(=C(c1ccccc1)c1ccccc1)c1ccccc1` [Compound 1]?
**A.** antiplasmodial activity class ([1]; P. falciparum W2, class based on IC50): inactive; IC50 [1, 4]: 83 ± 5 µM; IC50 ([1]; Plasmodium falciparum, W2, P. falciparum W2 clone, CQ-resistant, blood-stage, anti-HRPII assay, read-out: IC50 Pf): > 60 µM

**Q.** What does the source list for “1-[(4-(3-dimethylaminopropoxy)phenyl-phenyl)methylidene][3]ferrocenophane [Compound 8]”?
**A.** IC50 [1, 4]: 5.9 ± 1.6 µM; cytotoxicity class (by MLD50) [2]: toxic (those having MLD50< 100 mM were considered toxic); log P [3]: 3.46

**Q.** For `CCN(CC)CCCC(C)Nc1ccnc2cc(Cl)ccc12` (stereo not shown) [CQ, chloroquine, reference compound], which IC50 ([1]; Plasmodium falciparum, W2, read-out: IC50 Pf) is on record?
**A.** 0.1 ± 0.02 µM
